Test results taken from US20250326732A1 (Pretzel Therapeutics, Inc., priority 2021, published 2025).

These compounds were tested against POLRMT (Homo sapiens (Human), UniProt O00411) (assay: homogeneous TR-FRET assay of mitochondrial transcription (inhibition of POLRMT)). Conditions: 7.5 nM POLRMT, 15 nM TFB2M, 30 nM TFAM, 0.5 nM DNA template, 500 μM NTPs, 37° C. for 60 minutes.
Type: biochemical
Outline: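 POLRMT transcription from linearized pUC-LSP DNA template; RNA product detected by hybridization of ATTO647 acceptor (1 nM) and biotinylated donor (3 nM) probes plus Europium-streptavidin. Reaction stopped with EDTA/700 mM NaCl buffer, pH 7.5.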

POLRMT, sequence (O00411 42-1230): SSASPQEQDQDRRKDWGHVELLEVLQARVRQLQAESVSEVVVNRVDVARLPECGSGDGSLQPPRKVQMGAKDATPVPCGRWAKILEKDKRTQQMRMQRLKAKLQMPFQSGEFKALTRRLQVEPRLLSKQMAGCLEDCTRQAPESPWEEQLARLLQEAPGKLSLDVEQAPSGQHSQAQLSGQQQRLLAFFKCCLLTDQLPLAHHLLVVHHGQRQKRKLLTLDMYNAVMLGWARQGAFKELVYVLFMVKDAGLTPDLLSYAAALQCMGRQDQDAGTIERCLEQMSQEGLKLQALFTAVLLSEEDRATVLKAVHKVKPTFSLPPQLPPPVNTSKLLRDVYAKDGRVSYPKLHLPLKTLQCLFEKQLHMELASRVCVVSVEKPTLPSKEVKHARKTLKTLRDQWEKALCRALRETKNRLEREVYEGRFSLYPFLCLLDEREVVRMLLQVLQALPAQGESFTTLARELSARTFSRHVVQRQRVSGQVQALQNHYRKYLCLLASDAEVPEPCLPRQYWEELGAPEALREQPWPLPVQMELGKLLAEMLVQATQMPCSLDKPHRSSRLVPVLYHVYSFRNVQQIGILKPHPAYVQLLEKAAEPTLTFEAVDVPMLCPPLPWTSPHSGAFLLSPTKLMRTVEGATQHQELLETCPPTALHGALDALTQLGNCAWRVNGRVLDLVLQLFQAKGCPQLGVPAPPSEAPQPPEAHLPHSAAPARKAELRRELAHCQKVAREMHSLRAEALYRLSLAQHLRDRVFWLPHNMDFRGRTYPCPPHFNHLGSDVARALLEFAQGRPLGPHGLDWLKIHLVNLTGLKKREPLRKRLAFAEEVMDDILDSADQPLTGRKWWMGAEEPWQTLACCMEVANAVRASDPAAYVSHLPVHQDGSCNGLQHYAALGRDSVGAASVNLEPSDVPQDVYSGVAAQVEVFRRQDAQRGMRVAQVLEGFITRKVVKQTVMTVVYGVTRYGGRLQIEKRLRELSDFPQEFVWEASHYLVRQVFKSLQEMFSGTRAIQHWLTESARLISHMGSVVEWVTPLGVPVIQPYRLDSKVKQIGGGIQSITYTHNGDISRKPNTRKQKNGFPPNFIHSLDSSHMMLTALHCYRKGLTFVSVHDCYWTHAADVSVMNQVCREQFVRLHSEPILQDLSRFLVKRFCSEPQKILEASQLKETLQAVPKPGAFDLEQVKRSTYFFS

Structure (SMILES) | IC50 [nM]
CC(=O)N(C)[C@@H]1CCCN(C(=O)c2ccc3c(-c4ccccc4C)cc(=O)oc3c2)C1 [Example 172, (R)—N-methyl-N-(1-(2-oxo-4-(o-tolyl)-2H-chromene-7-carbonyl)piperidin-3-yl)acetamide] | > 100000
CC(=O)N(C)[C@H]1CCCN(C(=O)c2ccc3c(-c4ccccc4C)cc(=O)oc3c2)C1 [Example 173, (S)—N-methyl-N-(1-(2-oxo-4-(o-tolyl)-2H-chromene-7-carbonyl)piperidin-3-yl)acetamide] | 73000
CC(=O)NC[C@H]1CCN(C(=O)c2ccc3c(-c4ccccc4C)cc(=O)oc3c2)C1 [Example 174, (R)—N-((1-(2-oxo-4-(o-tolyl)-2H-chromene-7-carbonyl)pyrrolidin-3-yl)methyl)acetamide] | 47000
CNC(=O)CN(C)c1ccc2c(-c3ccccc3C)cc(=O)oc2c1 [Example 177, N-methyl-2-(methyl(2-oxo-4-(o-tolyl)-2H-chromen-7-yl)amino)acetamide] | 50
Cc1ccccc1-c1cc(=O)oc2cc(N(C)Cc3ccn[nH]3)ccc12 [Example 178, 7-(((1H-pyrazol-5-yl)methyl)(methyl)amino)-4-(o-tolyl)-2H-chromen-2-one] | 50
Cc1ccccc1-c1cc(=O)oc2cc(N(C)Cc3nnn[nH]3)ccc12 [Example 179, 7-(((1H-tetrazol-5-yl)methyl)(methyl)amino)-4-(o-tolyl)-2H-chromen-2-one] | 100
CC[C@@H](C(=O)O)N(C)c1ccc2c(-c3ccccc3C)cc(=O)oc2c1 [Example 180, (S)-2-(methyl(2-oxo-4-(o-tolyl)-2H-chromen-7-yl)amino)butanoic acid] | 200
Cc1ccccc1-c1cc(=O)oc2cc(C(=O)N3CCC(CN(C)C)C3)ccc12 (stereo not drawn) [Example 181, 7-(3-((dimethylamino)methyl)pyrrolidine-1-carbonyl)-4-(o-tolyl)-2H-chromen-2-one] | > 100000
COC(=O)C1CN(C(=O)c2ccc3c(-c4ccccc4C)cc(=O)oc3c2)C1 [Example 182, methyl 1-(2-oxo-4-(o-tolyl)-2H-chromene-7-carbonyl) azetidine-3-carboxylate] | 12000
Cc1ccccc1-c1cc(=O)oc2cc(C(=O)N3CC(C(N)=O)C3)ccc12 [Example 183, 1-(2-oxo-4-(o-tolyl)-2H-chromene-7-carbonyl) azetidine-3-carboxamide] | 7000
Cc1ccccc1-c1cc(=O)oc2cc(NCc3nnn[nH]3)ccc12 [Example 184, 7-(((1H-tetrazol-5-yl)methyl)amino)-4-(o-tolyl)-2H-chromen-2-one] | 3000
Cc1ccccc1-c1cc(=O)oc2cc(NCc3ccon3)ccc12 [Example 185, 7-((isoxazol-3-ylmethyl)amino)-4-(o-tolyl)-2H-chromen-2-one] | 700
C[C@@H](Cc1ccc2c(-c3ccc(F)cc3Cl)cc(=O)oc2c1)C(=O)N1CCC[C@H](C(=O)O)C1 [Example 186, (S)-1-((S)-3-(4-(2-chloro-4-fluorophenyl)-2-oxo-2H-chromen-7-yl)-2-methylpropanoyl)piperidine-3-carboxylic acid] | 28000
C[C@H](Cc1ccc2c(-c3ccc(F)cc3Cl)cc(=O)oc2c1)C(=O)N1CCC[C@H](C(=O)O)C1 [Example 187, (S)-1-((R)-3-(4-(2-chloro-4-fluorophenyl)-2-oxo-2H-chromen-7-yl)-2-methylpropanoyl)piperidine-3-carboxylic acid] | 100
Cc1ccccc1-c1cc(=O)oc2cc(N(C)Cc3ncco3)ccc12 [Example 188, 7-(methyl(oxazol-2-ylmethyl)amino)-4-(o-tolyl)-2H-chromen-2-one] | 80
Cc1ccccc1-c1cc(=O)oc2cc(N(C)CC(=O)NS(C)(=O)=O)ccc12 [Example 191, 2-(methyl(2-oxo-4-(o-tolyl)-2H-chromen-7-yl)amino)-N-(methylsulfonyl)acetamide] | 7000
Cc1ccccc1-c1cc(=O)oc2cc(NCc3ccnn3C)ccc12 [Example 192, 7-(((1-methyl-1H-pyrazol-5-yl)methyl)amino)-4-(o-tolyl)-2H-chromen-2-one] | 2000
Cc1ccccc1-c1cc(=O)oc2cc(N(C)Cc3ccnn3C)ccc12 [Example 193, 7-(methyl((1-methyl-1H-pyrazol-5-yl)methyl)amino)-4-(o-tolyl)-2H-chromen-2-one] | 100
CC(C(N)=O)N(C)c1ccc2c(-c3ccccc3)cc(=O)oc2c1 (stereo not drawn) [Example 194, 2-(methyl(2-oxo-4-phenyl-2H-chromen-7-yl)amino)propanamide] | 300
Cc1ccccc1-c1cc(=O)oc2cc(N(C)C(C)C(N)=O)ccc12 (stereo not drawn) [Example 195, 2-(methyl(2-oxo-4-(o-tolyl)-2H-chromen-7-yl)amino)propanamide] | 50
CC(=O)NC[C@@H]1CCN(C(=O)c2ccc3c(-c4ccccc4C)cc(=O)oc3c2)C1 [Example 196, (S)—N-((1-(2-oxo-4-(o-tolyl)-2H-chromene-7-carbonyl)pyrrolidin-3-yl)methyl)acetamide] | 42000

Structure (SMILES) | IC50 [nM]
COCC(Nc1ccc2c(-c3ccccc3C)cc(=O)oc2c1)C(N)=O (stereo not drawn) [Example 199, 3-methoxy-2-((2-oxo-4-(o-tolyl)-2H-chromen-7-yl)amino)propanamide] | 800
Cc1ccccc1-c1cc(=O)oc2cc(CC(C#N)CO)ccc12 (stereo not drawn) [Example 200, 3-hydroxy-2-((2-oxo-4-(o-tolyl)-2H-chromen-7-yl)methyl)propanenitrile] | 3000
COCC(C#N)Cc1ccc2c(-c3ccccc3C)cc(=O)oc2c1 (stereo not drawn) [Example 201, 3-methoxy-2-((2-oxo-4-(o-tolyl)-2H-chromen-7-yl)methyl)propanenitrile] | 2000
COCC(C(N)=O)N(C)c1ccc2c(-c3ccccc3C)cc(=O)oc2c1 (stereo not drawn) [Example 202, 3-methoxy-2-(methyl(2-oxo-4-(o-tolyl)-2H-chromen-7-yl)amino)propanamide] | 2000
Cc1ccccc1-c1cc(=O)oc2cc(N(C)Cc3ccon3)ccc12 [Example 204, 7-((isoxazol-3-ylmethyl)(methyl)amino)-4-(o-tolyl)-2H-chromen-2-one] | 30
CC(=O)N(C)CC1CCN(C(=O)c2ccc3c(-c4ccccc4C)cc(=O)oc3c2)C1 (stereo not drawn) [Example 205, N-methyl-N-((1-(2-oxo-4-(o-tolyl)-2H-chromene-7-carbonyl)pyrrolidin-3-yl)methyl)acetamide] | > 100000
Cc1ccccc1-c1cc(=O)oc2cc(N(C)Cc3ccc(=O)[nH]c3)ccc12 [Example 209, 5-((methyl(2-oxo-4-(o-tolyl)-2H-chromen-7-yl)amino)methyl)pyridin-2 (1H)-one] | 300
Cc1ccccc1-c1cc(=O)oc2cc(NC(C)(C)C(N)=O)ccc12 [Example 210, 2-methyl-2-((2-oxo-4-(o-tolyl)-2H-chromen-7-yl)amino)propanamide] | 3000
CC[C@@H](Nc1ccc2c(-c3ccccc3C)cc(=O)oc2c1)C(N)=O [Example 211, (R)-2-((2-oxo-4-(o-tolyl)-2H-chromen-7-yl)amino)butanamide] | 1000
CC[C@H](Nc1ccc2c(-c3ccccc3C)cc(=O)oc2c1)C(N)=O [Example 212, (S)-2-((2-oxo-4-(o-tolyl)-2H-chromen-7-yl)amino)butanamide] | 600
Cc1ccccc1-c1cc(=O)oc2cc(NC3(C(N)=O)CC3)ccc12 [Example 213, 1-((2-oxo-4-(o-tolyl)-2H-chromen-7-yl)amino)cyclopropane-1-carboxamide] | 21000
Cc1ccccc1-c1cc(=O)oc2cc(NCC3(C(=O)O)CC3)ccc12 [Example 216, 1-(((2-oxo-4-(o-tolyl)-2H-chromen-7-yl)amino)methyl)cyclopropane-1-carboxylic acid] | 600
Cc1ccccc1-c1cc(=O)oc2cc(N(C)CC3(C(=O)O)CC3)ccc12 [Example 217, 1-((methyl(2-oxo-4-(o-tolyl)-2H-chromen-7-yl)amino)methyl)cyclopropane-1-carboxylic acid] | 90
COCCNC(=O)CN(C)c1ccc2c(-c3ccccc3C)cc(=O)oc2c1 [Example 218, N-(2-methoxyethyl)-2-(methyl(2-oxo-4-(o-tolyl)-2H-chromen-7-yl)amino)acetamide] | 200
Cc1ccccc1-c1cc(=O)oc2cc(N(C)CC(=O)NCCO)ccc12 [Example 219, N-(2-hydroxyethyl)-2-(methyl(2-oxo-4-(o-tolyl)-2H-chromen-7-yl)amino)acetamide] | 200
Cc1ccccc1-c1cc(=O)oc2cc(N(C)CC(=O)NCC(F)(F)F)ccc12 [Example 220, 2-(methyl(2-oxo-4-(o-tolyl)-2H-chromen-7-yl)amino)-N-(2,2,2-trifluoroethyl)acetamide] | 100
Cc1ccccc1-c1cc(=O)oc2cc(N(C)CC(=O)NCCN(C)C)ccc12 [Example 221, N-(2-(dimethylamino)ethyl)-2-(methyl(2-oxo-4-(o-tolyl)-2H-chromen-7-yl)amino)acetamide] | 2000
Cc1ccccc1-c1cc(=O)oc2cc(CN(C)C(=O)N3CCC[C@@H](C(=O)O)C3)ccc12 [Example 222, (R)-1-(methyl((2-oxo-4-(o-tolyl)-2H-chromen-7-yl)methyl)carbamoyl)piperidine-3-carboxylic acid] | 2000
Cc1ccccc1-c1cc(=O)oc2cc(N(C)CC(=O)NCC(=O)O)ccc12 [Example 223, N-methyl-N-(2-oxo-4-(o-tolyl)-2H-chromen-7-yl)glycylglycine] | 800
CCOC(=O)[C@@H]1C[C@@H]1c1ccc2c(-c3ccccc3C)cc(=O)oc2c1 [Example 224, ethyl (1R,2S)-2-(2-oxo-4-(o-tolyl)-2H-chromen-7-yl)cyclopropane-1-carboxylate] | 300
CCOC(=O)[C@H]1C[C@@H]1c1ccc2c(-c3ccccc3C)cc(=O)oc2c1 [Example 225, ethyl (1S,2S)-2-(2-oxo-4-(o-tolyl)-2H-chromen-7-yl)cyclopropane-1-carboxylate] | 700
